Test system: phenylquinone-induced writhing reactions
Experiment: phenylquinone-induced writhing in mice
Type: in vivo
Conditions: male NMRI mice, 10 mg/kg i.v., phenylquinone i.p. 10 minutes after compound, writhing counted 5-20 minutes after phenylquinone
Procedure: The investigation into analgesic efficacy was performed by phenylquinone-induced writhing in mice (modified after: I. C. Hendershot, J. Forsaith, J. Pharmacol. Exp. There. 125, 237-240 (1959)). The corresponding literature description is hereby introduced as a reference and is deemed to be part of the disclosure.
Male NMRI mice weighing from 25 to 30 g were used for this purpose. Groups of 10 animals per substance dose received, 10 minutes after intravenous administration of the compounds tested, 0.3 ml/mouse of a 0.02% aqueous solution of phenylquinone (phenylbenzoquinone, Sigma, Deisenhofen; solution prepared with addition of 5% of ethanol and stored in a water bath at 45° C.) administered intraperitoneally. The animals were placed individually in observation cages. A push button counter was used to record the number of pain-induced stretching movements (writhing reactions=straightening of the torso with stretching of the rear extremities) for 5-20 minutes after phenylquinone administration. The control was provided by animals which received only physiological common salt solution.
The compounds were tested at the standard dosage of 10 mg/kg. Inhibition of the writhing reactions by a substance was calculated according to the following formula: [formula]
The in-depth investigation into analgesic efficacy was performed using phenylquinbne-induced writhing in mice, as described above.

Question: Which “% inhibition of writhing reactions” value does the source give for `COc1cccc(C2(O)CCC(NC(=O)Cc3c(O)c4ccc(Cl)cc4[nH]c3=O)CC2CN(C)C)c1` (centres unmarked) [Example 1, 2′-(7-Chloro-4-hydroxy-2-oxo-1,2-dihydroquinolin-3-yl)-N-[3″-(N,N-dimethylaminomethyl)-4″-hydroxy-4″-(m-methoxyphenyl)cyclohexyl]acetamide] here?
Answer: Its value is 60%.

Question: Which “% inhibition of writhing reactions” value does the source give for `COc1cccc(C2(O)CCC(NC(=O)Cc3c(OC)c4ccc(Cl)cc4[nH]c3=O)CC2CN(C)C)c1` (centres unmarked) [Example 2, 2′-(7-Chloro-4-methoxy-2-oxo-1,2-dihydroquinolin-3-yl)-N-[3″-(N,N-dimethylaminomethyl)-4″-hydroxy-4″-(m-methoxyphenyl)cyclohexyl]acetamide] here?
Answer: The value was 63%.

— US20040224980A1, “Substituted 1H-quinolin-2-one compounds” (priority 2001, published 2004)
